Type in all cases: in vivo
Assay [1] deals with Amaranthus retroflexus. Briefly: greenhouse herbicidal test, post-emergence treatment. To be noted: post-emergence method, application rate 2000 g/ha, scale from 0 to 100, test period 2 to 4 weeks. An excerpt:
(§1) The seeds of the test plants were sown separately for each species. For the post-emergence treatment, the test plants were first grown to a height of 3 to 15 cm, depending on the plant habit, and only then treated with the active ingredients which had been suspended or emulsified in water. For this purpose, the test plants were either sown directly and grown in the same containers, or they were first grown separately as seedlings and transplanted into the test containers a few days prior to treatment. Depending on the species, the plants were kept at 10-25° C. or 20-35° C., respectively. The test period extended over 2 to 4 weeks. During this time, the plants were tended, and their response to the individual treatments was evaluated. Evaluation was carried out using a scale from 0 to 100. 100 means no emergence of the plants, or complete destruction of at least the aerial moieties, and 0 means no damage, or normal course of growth. A good herbicidal activity is given at values of at least 70 and a very good herbicidal activity is given at values of at least 85. The plants used in the greenhouse experiments were of the following species: [table]

Assay [2] has as its system Matricaria inodora. Described as above. To be noted: post-emergence method, application rate 2000 g/ha, scale from 0 to 100, test period 2 to 4 weeks.
Text: as §1

The subject of assay [3] is Apera spica-venti. Briefly: greenhouse herbicidal test, pre-emergence treatment. Conditions: pre-emergence method, application rate 2000 g/ha, scale from 0 to 100, test period 2 to 4 weeks. From the text: (§2) The seeds of the test plants were sown separately for each species. For the pre-emergence treatment, the active ingredients, which had been suspended or emulsified in water, were applied directly after sowing by means of finely distributing nozzles. The containers were irrigated gently to promote germination and growth and subsequently covered with transparent plastic hoods until the plants had rooted. This cover caused uniform germination of the test plants, unless this had been impaired by the active ingredients. Depending on the species, the plants were kept at 10-25° C. or 20-35° C., respectively. The test period extended over 2 to 4 weeks. During this time, the plants were tended, and their response to the individual treatments was evaluated. Evaluation was carried out using a scale from 0 to 100. 100 means no emergence of the plants, or complete destruction of at least the aerial moieties, and 0 means no damage, or normal course of growth. A good herbicidal activity is given at values of at least 70 and a very good herbicidal activity is given at values of at least 85. The plants used in the greenhouse experiments were of the following species: [table]

In assay [4] the test system is Echinocloa crus-galli. As to the kind of experiment: greenhouse herbicidal test, post-emergence treatment. Conditions: post-emergence method, application rate 2000 g/ha, scale from 0 to 100, test period 2 to 4 weeks.
Text: as §1

Assay [5] concerns Echinocloa crus-galli. As to the kind of experiment: greenhouse herbicidal test, pre-emergence treatment. To be noted: pre-emergence method, application rate 2000 g/ha, scale from 0 to 100, test period 2 to 4 weeks.
Text: as §2

Assay [6] deals with Avena fatua. Briefly: greenhouse herbicidal test, post-emergence treatment. Conditions: post-emergence method, application rate 2000 g/ha, scale from 0 to 100, test period 2 to 4 weeks.
Text: as §1

Assay [7] concerns Setaria viridis. The assay is described as above. Conditions: post-emergence method, application rate 2000 g/ha, scale from 0 to 100, test period 2 to 4 weeks.
Text: as §1

Assay [8] has as its system Alopecurus myosuroides. Described as above. Conditions: post-emergence method, application rate 2000 g/ha, scale from 0 to 100, test period 2 to 4 weeks.
Text: as §1

Assay [9] has as its system ABUTH. Described as above. Conditions: post-emergence method, application rate 2000 g/ha, scale from 0 to 100, test period 2 to 4 weeks.
Text: as §1, with “85.” for “85. The plants used in the greenhouse experiments were of the following species: [table]”

Consider ten compounds from patent publication US20210345613A1, “HERBICIDAL PYRIMIDINE COMPOUNDS” (BASF SE, priority 2016, published 2021).

Consider `Cc1nc(C2CC2)ncc1-c1ncccc1Cl` [Ex.01], for which, in [1], the “herbicidal activity against AMARE” value is given as “very good (a very good herbicidal activity is given at values of at least 85)”. Moreover, the “herbicidal activity against MATIN” value in assay [2] is on record as “very good (a very good herbicidal activity is given at values of at least 85)”.
`CCOC(=O)C(C)c1nc(C2CC2)ncc1-c1ncccc1Cl` (stereo not shown) [Ex.21]: the “herbicidal activity against APESV” value in assay [3] is on record as “good (A good herbicidal activity is given at values of at least 70)”. For the same compound, in assay [1], the “herbicidal activity against AMARE” value is “good (A good herbicidal activity is given at values of at least 70)”. The “herbicidal activity against ECHCG” value in assay [4] is given as “very good (a very good herbicidal activity is given at values of at least 85)”.
Turning to `CCOC(=O)C(C)(C)c1nc(C2CC2)ncc1-c1ncccc1Cl` [Ex.22], in [1], the “herbicidal activity against AMARE” value is on record as “very good (a very good herbicidal activity is given at values of at least 85)”.
With `OC(Cc1nc(C2CC2)ncc1-c1ncccc1Cl)c1ccco1` (stereo not shown) [Ex.24], the “herbicidal activity against ECHCG” value in assay [5] is reported as “very good (a very good herbicidal activity is given at values of at least 85)”. The “herbicidal activity against APESV” value in assay [3] is reported as “very good (a very good herbicidal activity is given at values of at least 85)”. The “herbicidal activity against AVEFA” value in assay [6] was “good (A good herbicidal activity is given at values of at least 70)”. In addition, the “herbicidal activity against SETVI” value in assay [7] is on record as “good (A good herbicidal activity is given at values of at least 70)”. In addition, the “herbicidal activity against ALOMY” value in [8] is on record as “very good (a very good herbicidal activity is given at values of at least 85)”.
`CC(O)Cc1nc(C2CC2)ncc1-c1ncccc1Cl` (stereo not shown) [Ex.29]: the “herbicidal activity against ECHCG” value in assay [5] is reported as “very good (a very good herbicidal activity is given at values of at least 85)”. The “herbicidal activity against APESV” value in [3] is “very good (a very good herbicidal activity is given at values of at least 85)”. The “herbicidal activity against SETVI” value in assay [7] is given as “very good (a very good herbicidal activity is given at values of at least 85)”. Besides, the “herbicidal activity against ABUTH” value in assay [9] is reported as “good (A good herbicidal activity is given at values of at least 70)”.
`OC(Cc1nc(C2CC2)ncc1-c1ncccc1Cl)c1cccs1` (stereo not shown) [Ex.33]: in assay [1], the “herbicidal activity against AMARE” value is “very good (a very good herbicidal activity is given at values of at least 85)”. In addition, the “herbicidal activity against ECHCG” value in [4] was “good (A good herbicidal activity is given at values of at least 70)”.
For `Cc1occc1-c1nc(C2CC2)ncc1-c1ncccc1Cl` [Ex.34], the “herbicidal activity against ECHCG” value in [5] is “very good (a very good herbicidal activity is given at values of at least 85)”. Besides, the “herbicidal activity against APESV” value in assay [3] is on record as “very good (a very good herbicidal activity is given at values of at least 85)”. Also, in assay [1], the “herbicidal activity against AMARE” value is listed as “very good (a very good herbicidal activity is given at values of at least 85)”. Moreover, the “herbicidal activity against AVEFA” value in assay [6] is “good (A good herbicidal activity is given at values of at least 70)”. For the same compound, the “herbicidal activity against ALOMY” value in assay [8] is given as “very good (a very good herbicidal activity is given at values of at least 85)”.
For the compound `Clc1cccnc1-c1cnc(C2CC2)nc1C=Cc1cccs1` [Ex.35], the “herbicidal activity against ECHCG” value in [5] is on record as “very good (a very good herbicidal activity is given at values of at least 85)”. The “herbicidal activity against APESV” value in [3] was “very good (a very good herbicidal activity is given at values of at least 85)”. Besides, the “herbicidal activity against AVEFA” value in [6] is given as “good (A good herbicidal activity is given at values of at least 70)”. The “herbicidal activity against SETVI” value in assay [7] is “very good (a very good herbicidal activity is given at values of at least 85)”. For the same compound, the “herbicidal activity against ALOMY” value in assay [8] was “very good (a very good herbicidal activity is given at values of at least 85)”.
Take `Clc1cccnc1-c1cnc(C2CC2)nc1C=Cc1ccccc1` [Ex.37]: the “herbicidal activity against AMARE” value in assay [1] is “very good (a very good herbicidal activity is given at values of at least 85)”. Besides, in assay [7], the “herbicidal activity against SETVI” value is “very good (a very good herbicidal activity is given at values of at least 85)”. Further, the “herbicidal activity against ABUTH” value in assay [9] is “very good (a very good herbicidal activity is given at values of at least 85)”.
Take `CCC(=O)Cc1nc(C2CC2)ncc1-c1ncccc1Cl` [Ex.44]: the “herbicidal activity against ECHCG” value in [5] was “very good (a very good herbicidal activity is given at values of at least 85)”. The “herbicidal activity against APESV” value in [3] is “very good (a very good herbicidal activity is given at values of at least 85)”. The “herbicidal activity against AMARE” value in assay [1] is “good (A good herbicidal activity is given at values of at least 70)”. In addition, the “herbicidal activity against ALOMY” value in [8] is on record as “very good (a very good herbicidal activity is given at values of at least 85)”.
